Series [1] concerns the target Epidermal growth factor receptor (Homo sapiens, UniProt P00533). Put plainly: Inhibition of EGFR by homogeneous time-resolved fluorescence assay.
The target of series [2] is Receptor tyrosine-protein kinase erbB-2 (Homo sapiens, UniProt P04626). The experiment in a line: Inhibition of HER2 by homogeneous time-resolved fluorescence assay.
A short description of series [3]: Aqueous solubility of the compound at pH 6.8. The series is classed as physicochemical.
The nature of series [4]: Lipophilicity log P of the compound. The series is classed as physicochemical. Particulars: octanol/water.
In series [5] the test system is BT-474. Put plainly: Antiproliferative activity against human BT474 cells by methylene blue staining method.

Chain of Receptor tyrosine-protein kinase erbB-2 (P04626 whole entry): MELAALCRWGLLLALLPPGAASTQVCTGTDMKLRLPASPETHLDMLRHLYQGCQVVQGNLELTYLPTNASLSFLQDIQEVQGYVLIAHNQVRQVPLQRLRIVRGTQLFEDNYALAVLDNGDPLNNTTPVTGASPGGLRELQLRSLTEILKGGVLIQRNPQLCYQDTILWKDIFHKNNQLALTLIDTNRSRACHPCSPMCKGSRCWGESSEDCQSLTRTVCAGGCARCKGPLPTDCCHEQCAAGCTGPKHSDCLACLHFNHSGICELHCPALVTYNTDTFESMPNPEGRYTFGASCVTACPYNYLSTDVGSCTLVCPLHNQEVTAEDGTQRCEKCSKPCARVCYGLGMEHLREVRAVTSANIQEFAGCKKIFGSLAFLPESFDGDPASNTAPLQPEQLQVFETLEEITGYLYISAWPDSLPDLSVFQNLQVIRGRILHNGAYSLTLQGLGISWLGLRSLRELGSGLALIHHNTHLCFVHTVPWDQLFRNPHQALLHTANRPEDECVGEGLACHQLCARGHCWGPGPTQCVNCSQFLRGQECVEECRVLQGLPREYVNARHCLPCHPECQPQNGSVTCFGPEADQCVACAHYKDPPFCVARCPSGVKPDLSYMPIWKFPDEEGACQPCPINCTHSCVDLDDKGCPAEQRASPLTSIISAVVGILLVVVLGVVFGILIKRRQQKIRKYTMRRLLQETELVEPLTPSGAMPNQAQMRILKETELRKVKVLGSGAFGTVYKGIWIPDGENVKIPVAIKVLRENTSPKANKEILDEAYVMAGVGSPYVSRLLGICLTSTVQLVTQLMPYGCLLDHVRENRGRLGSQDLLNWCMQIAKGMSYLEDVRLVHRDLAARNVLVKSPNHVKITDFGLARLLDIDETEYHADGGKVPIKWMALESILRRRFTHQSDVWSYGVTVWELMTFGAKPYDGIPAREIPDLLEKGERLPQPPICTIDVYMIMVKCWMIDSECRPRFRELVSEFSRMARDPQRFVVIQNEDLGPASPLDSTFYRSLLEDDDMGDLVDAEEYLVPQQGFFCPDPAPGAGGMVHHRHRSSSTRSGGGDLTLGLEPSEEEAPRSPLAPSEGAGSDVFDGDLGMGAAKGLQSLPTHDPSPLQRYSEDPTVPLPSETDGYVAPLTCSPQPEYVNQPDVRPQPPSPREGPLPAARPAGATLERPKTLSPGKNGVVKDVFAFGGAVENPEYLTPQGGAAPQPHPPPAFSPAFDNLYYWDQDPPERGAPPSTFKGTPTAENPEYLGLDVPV
Chain of Epidermal growth factor receptor (P00533 whole entry): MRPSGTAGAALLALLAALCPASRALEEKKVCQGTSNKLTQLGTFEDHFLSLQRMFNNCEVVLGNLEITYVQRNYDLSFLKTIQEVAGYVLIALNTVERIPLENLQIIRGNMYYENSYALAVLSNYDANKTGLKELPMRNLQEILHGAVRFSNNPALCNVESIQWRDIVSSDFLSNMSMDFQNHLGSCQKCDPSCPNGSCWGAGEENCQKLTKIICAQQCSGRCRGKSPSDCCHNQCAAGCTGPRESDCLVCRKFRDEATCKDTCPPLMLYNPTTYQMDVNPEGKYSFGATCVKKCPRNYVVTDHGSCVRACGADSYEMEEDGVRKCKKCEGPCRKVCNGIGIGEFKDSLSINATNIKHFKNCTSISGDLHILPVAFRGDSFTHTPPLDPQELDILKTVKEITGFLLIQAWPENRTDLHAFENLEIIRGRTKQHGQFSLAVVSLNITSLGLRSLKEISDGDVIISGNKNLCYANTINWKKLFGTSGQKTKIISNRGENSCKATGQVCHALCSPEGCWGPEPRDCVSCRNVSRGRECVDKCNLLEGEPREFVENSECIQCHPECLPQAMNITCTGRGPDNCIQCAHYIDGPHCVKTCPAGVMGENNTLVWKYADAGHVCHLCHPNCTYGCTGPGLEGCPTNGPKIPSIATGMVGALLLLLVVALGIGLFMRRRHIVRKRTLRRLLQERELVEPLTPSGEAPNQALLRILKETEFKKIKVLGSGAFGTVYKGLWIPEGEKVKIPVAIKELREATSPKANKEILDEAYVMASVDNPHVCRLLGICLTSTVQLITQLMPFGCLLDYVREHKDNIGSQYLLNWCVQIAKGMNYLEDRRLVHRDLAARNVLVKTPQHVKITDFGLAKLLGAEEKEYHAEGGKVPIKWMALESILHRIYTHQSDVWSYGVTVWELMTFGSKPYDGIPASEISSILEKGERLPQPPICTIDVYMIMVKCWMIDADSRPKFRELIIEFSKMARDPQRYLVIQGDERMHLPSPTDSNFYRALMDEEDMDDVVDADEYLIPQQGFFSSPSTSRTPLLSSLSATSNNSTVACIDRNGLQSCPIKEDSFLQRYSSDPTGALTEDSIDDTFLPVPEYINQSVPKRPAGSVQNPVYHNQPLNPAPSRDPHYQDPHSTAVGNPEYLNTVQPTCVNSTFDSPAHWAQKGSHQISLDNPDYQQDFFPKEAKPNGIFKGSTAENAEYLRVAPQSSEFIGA

As for `Cc1cc(Nc2ccc(OCc3cccc(F)c3)c(Cl)c2)ncn1`, the IC50 was 1100 nM in series [1] and 6500 nM in series [2].

As to `Fc1cccc(COc2ccc(Nc3cc(-c4ccccc4)ncn3)cc2Cl)c1`, the 50% inhibitory concentration (IC50) in series [1] came to 1200 nM; in series [2], 6300 nM.

Take `Fc1cccc(COc2ccc(Nc3cc(-c4cccnc4)ncn3)cc2Cl)c1`: the IC50 is 47000 nM in series [1] and more than 100000 nM in series [2].

In series [2], `Fc1cccc(COc2ccc(Nc3cc(-c4ccsc4)ncn3)cc2Cl)c1` came in with an IC50 of 36000 nM.

Turning to `Fc1cccc(COc2ccc(Nc3cc(N4CCCC4)ncn3)cc2Cl)c1`, the IC50 in series [1] and in series [2] was more than 100000 nM throughout.

Regarding `Fc1cccc(COc2ccc(Nc3cc(Oc4ccccc4)ncn3)cc2Cl)c1`, the figures for the IC50 in series [1] and in series [2] were 10000 nM and more than 100000 nM, respectively.

As for `Cc1ncnc(Nc2ccc(OCc3cccc(F)c3)c(Cl)c2)c1C`, the IC50 in series [1] was found to be 17 nM; in series [2] it was 140 nM.

On to `CCc1ncnc(Nc2ccc(OCc3cccc(F)c3)c(Cl)c2)c1C`, for which the IC50 in series [1] came to 640 nM; in series [2] it was 2900 nM.

Take `Cc1c(Nc2ccc(OCc3cccc(F)c3)c(Cl)c2)ncnc1-c1ccccc1`: the IC50 in series [1] is 20000 nM; in series [2], 65000 nM.

For the molecule `Cc1ncnc(Nc2ccc(OCc3cccc(F)c3)c(Cl)c2)c1/C=N/OCCN1CCOCC1`, the IC50 in series [1] worked out at 68 nM; in series [2], 740 nM.

`Cc1ncnc(Nc2ccc(OCc3cccc(F)c3)c(Cl)c2)c1/C=N/OCCCN1CCOCC1`: the IC50 in series [1] was found to be 65 nM; in series [2], 1800 nM.

Turning to `Cc1ncnc(Nc2ccc(OCc3cccc(F)c3)c(Cl)c2)c1-c1cccc(CN2CCOCC2)c1`, the IC50 in series [1] was determined as 590 nM; in series [2], 3750 nM.

As for `Cc1ncnc(Nc2ccc(OCc3cccc(F)c3)c(Cl)c2)c1C#CCCCN1CCOCC1`, the IC50 in series [1] came out at 34 nM; in series [2], 150 nM.

In the case of `Cc1ncnc(Nc2ccc(OCc3cccc(F)c3)c(Cl)c2)c1C#Cc1ccc(CN2CCOCC2)cc1`, in series [3] (aqueous, read-out: solubility), the solubility is more than 50 µM. In series [4], this molecule returned a logP of 6.96. Further, the IC50 in series [1] was found to be 240 nM; in series [2] it was 440 nM; in series [5] it was 394 nM.

Take `C/C(=C\c1c(C)ncnc1Nc1ccc(OCc2cccc(F)c2)c(Cl)c1)C(=O)NCCN1CCOCC1`: the IC50 in series [1] came out at 28 nM; in series [2], 81 nM.

On to `Cc1ncnc(Nc2ccc(OCc3cccc(F)c3)c(Cl)c2)c1/C=C/c1ccc(CN2CCOCC2)cc1`, for which the logP in series [4] turned out to be 7.73. For the same molecule, the IC50 was 120 nM in series [1], 190 nM in series [2] and 644 nM in series [5].

Molecule `Cc1ncnc(Nc2ccc(OCc3cccc(F)c3)c(Cl)c2)c1/C=C(\F)C(=O)NCCN1CCOCC1` gave an IC50 in series [2] of 78 nM.

Regarding `Cc1ncnc(Nc2ccc(OCc3cccc(F)c3)c(Cl)c2)c1/C=C/C(=O)NCCN1CCOCC1`, the IC50 turned out to be 114 nM in series [1] and 318 nM in series [2].

As to `Cc1ncnc(Nc2ccc(OCc3cccc(F)c3)c(Cl)c2)c1/C=C(\F)C(=O)NCCN1CCCC1`, in series [3] (aqueous, read-out: solubility), the solubility was more than 50 µM. Also, in series [4], the logP turned out to be 5.98. In addition, the IC50 in series [1] came out at 3 nM; in series [2] it was 19 nM; in series [5], 1130 nM.

Turning to `Cc1ncnc(Nc2ccc(OCc3cccc(F)c3)c(Cl)c2)c1/C=C(\F)C(=O)NCCS(C)(=O)=O`, the IC50 in series [1] came to 19 nM; in series [2] it was 71 nM.

`CCN1CCN(C(=O)/C(F)=C/c2c(C)ncnc2Nc2ccc(OCc3cccc(F)c3)c(Cl)c2)CC1`: the IC50 in series [1] is 156 nM; in series [2], 102 nM.

Take `Cc1ncnc(Nc2ccc(OCc3cccc(F)c3)c(Cl)c2)c1C#CCCN1CCOCC1`: the IC50 in series [1] stood at 13 nM; in series [2] it was 74 nM.

On to `Cc1ncnc(Nc2ccc(OCc3cccc(F)c3)c(Cl)c2)c1C#CCN1CCOCC1`, for which the values for the IC50 in series [1] and in series [2] were 4130 nM and 5380 nM, respectively.

Take `Cc1ncnc(Nc2ccc(OCc3cccc(F)c3)c(Cl)c2)c1C#C/C=N/OCCN1CCOCC1`: the IC50 in series [1] turned out to be 38 nM; in series [2] it was 70 nM.

Molecule `Cc1ncnc(Nc2ccc(OCc3cccc(F)c3)c(Cl)c2)c1C#CCCCN1CCCC1` showed an IC50 in series [2] of 95 nM.

Take `CCN1CCN(CCCC#Cc2c(C)ncnc2Nc2ccc(OCc3cccc(F)c3)c(Cl)c2)CC1`: in series [3] (aqueous, read-out: solubility), the solubility was more than 50 µM. In series [4], this molecule displayed a logP of 6.23. In addition, the 50% inhibitory concentration (IC50) in series [1] came out at 9 nM; in series [2], 36 nM; in series [5], 1440 nM.

Turning to `Cc1ncnc(Nc2ccc(OCc3cccc(F)c3)c(Cl)c2)c1C#CCCNCc1ccccc1`, the IC50 in series [1] amounted to 270 nM; in series [2] it was 810 nM.

Regarding `Cc1ncnc(Nc2ccc(OCc3cccc(F)c3)c(Cl)c2)c1/C=C/c1ccc(CN2CCOCC2)cc1.Cl`, the solubility in series [3] (aqueous, read-out: solubility) turned out to be 2 µM.

With `Fc1cccc(COc2ccc(Nc3ccncn3)cc2Cl)c1`, the IC50 is 920 nM in series [1] and 25000 nM in series [2].

In series [3] (buffer), `CS(=O)(=O)CCNCc1ccc(-c2ccc3ncnc(Nc4ccc(OCc5cccc(F)c5)c(Cl)c4)c3c2)o1.Cc1ccc(S(=O)(=O)O)cc1.Cc1ccc(S(=O)(=O)O)cc1.O` [LAPATINIB DITOSYLATE] showed a solubility of 24 µM. Moreover, in series [4], the logP stood at 6.67. Further, the IC50 in series [5] came out at 100 nM.

A word on the IC50: it is the concentration that inhibits the measured activity by half. In general, solubility refers to how much of the substance goes into solution per volume. Broadly, the logP is the decadic logarithm of the partition coefficient of the neutral form, usually between octanol and water. Lower therefore signals lower lipophilicity.

Values taken from ChEMBL document CHEMBL1681756, “Synthesis and evaluation of novel pyrimidine-based dual EGFR/Her-2 inhibitors” (Bioorg Med Chem Lett, 2011).
